{"source": "patent US3984531A", "about": "“Technetium-99m-tin-monofluorophosphate complex” (The Radiochemical Centre Limited, priority 1973, dated 1976)", "key": {"[1]": {"conditions": "skeletal imaging prior to 1971; cited from earlier work"}, "[2]": {"conditions": "monoenergetic; cited from earlier work"}, "[3]": {"conditions": "compared with stannous chloride"}, "[4]": {"conditions": "Subramanian and McAfee, Radiology 1971; cited from earlier work"}, "[5]": {"conditions": "long chain polyphosphate material; cited from earlier work"}}}
{"compound": "[18FH]", "note": "[Fluorine-18, fluorine-18]", "values": [{"measurement": "scan performance (in words)", "setting": "[1]", "result": "good agent"}]}
{"compound": "[85Sr]", "note": "[Strontium-85, strontium-85]", "values": [{"measurement": "scan performance (in words)", "setting": "[1]", "result": "poor quality scans"}]}
{"compound": "[87Sr]", "note": "[Strontium-87m, strontium-87m]", "values": [{"measurement": "scan performance (in words)", "setting": "[1]", "result": "high blood background"}]}
{"compound": "[99Tc]", "note": "[technetium-99m]", "values": [{"measurement": "gamma emission energy", "setting": "[2]", "result": 140, "unit": "KeV"}]}
{"compound": "Stannous fluoride", "values": [{"measurement": "stability to hydrolysis in aqueous solution (in words)", "setting": "[3]", "result": "more stable to hydrolysis in aqueous solution than stannous chloride"}]}
{"compound": "tripolyphosphate", "values": [{"measurement": "skeletal uptake / localization (in words)", "setting": "[4]", "result": "good skeletal uptake of activity"}, {"measurement": "stability with respect to hydrolysis (in words)", "setting": "[5]", "result": "instability of the long chain polyphosphate material with respect to hydrolysis"}]}
